According to patent US20100184848A1, “TRANSDERMAL FORMULATIONS OF SYNTHETIC CANNABINOIDS AND NANO COLLOIDAL SILICA” (priority 2006, published 2010):

System: patients in treatment for chronic neuropathic pain
Assay: 42 patient physician-sponsored open label clinical study of the compounded transdermal formulation
Assay type: in vivo
Conditions: about 1/4 gm applied to site of pain twice a day; overall trial 18 months
Experimental: A number of examples of formulations of the invention were made. The formulations were used in the 42 patient open-label study of Example 2 and applied under “Cannacreme-C” 60 gm.
A 42 patient open label clinical study was performed as a physician sponsored study of patients in treatment for chronic pain with different diagnoses.
Patients ranged in age from 30 to 70 years old and were both male and female. […]
Outcome measures included a patient's own subjective report, clinician's notes, as well as questionnaires such as the McGill Pain Questionnnaire (Melzack R., Pain. 1:277-299, 1975), Fibromyalgia impact Questionnaire (Burckhardt, C. S. et al., J. Rheumatol. 18:728-733, 1991), Visual Analogue Pain Rating Scale (such as reviewed in Wewers M. E. and Lowe N. K. Res. Nursing Health 13:227-236, 1990), and Likert Pain Scales (Likert, R. Arch. Psychol. 140: 55, 1932). Objective electrophysiological monitoring including Quantitative Sensory Testing, Electromyogram, and Nerve Conduction Studies, as required from patient to patient. […]

CCCCCCC(C)(C)c1cc(O)c2c(c1)OC(C)(C)C1CCC(=O)CC21 (stereo not shown) [Nabilone, 3-(1,1-dimethylheptyl)-6,6a,7,8,10,10a-hexahydro-1-hydroxy-6,6-dimethyl-9H-dibenzo[b,d]pyran-9-one]
local site sensitization, irritation or Adverse Drug Reaction: no reports of local site sensitization or irritation
